{"source": "patent US6525022B1", "about": "“Receptor specific atrial natriuretic peptides” (Genentech, Inc., priority 1993, dated 2003)", "key": {"hNPR-C": {"molecular_target": "T1, hNPR-C (Homo sapiens, UniProt P17342)", "T1 sequence (P17342 27-541)": "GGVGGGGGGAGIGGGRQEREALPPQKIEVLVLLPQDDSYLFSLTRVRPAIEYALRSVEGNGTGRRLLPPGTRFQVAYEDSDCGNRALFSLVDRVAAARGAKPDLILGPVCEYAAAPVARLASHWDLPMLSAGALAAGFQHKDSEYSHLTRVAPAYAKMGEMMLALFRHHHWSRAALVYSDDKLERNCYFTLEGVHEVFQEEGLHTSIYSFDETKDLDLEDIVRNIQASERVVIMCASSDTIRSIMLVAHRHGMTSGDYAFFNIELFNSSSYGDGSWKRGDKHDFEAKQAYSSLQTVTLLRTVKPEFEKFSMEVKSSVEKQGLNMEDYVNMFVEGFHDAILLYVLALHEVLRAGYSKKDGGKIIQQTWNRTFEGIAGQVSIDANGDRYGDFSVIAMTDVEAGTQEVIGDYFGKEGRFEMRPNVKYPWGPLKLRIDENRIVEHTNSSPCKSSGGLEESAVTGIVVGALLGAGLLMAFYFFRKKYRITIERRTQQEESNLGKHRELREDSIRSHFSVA", "assay": "Competition binding to hNPR-C (Table I, FIG. 5)"}, "hNPR-A": {"molecular_target": "T2, hNPR-A (Homo sapiens, UniProt P16066)", "T2 sequence (P16066 33-1061)": "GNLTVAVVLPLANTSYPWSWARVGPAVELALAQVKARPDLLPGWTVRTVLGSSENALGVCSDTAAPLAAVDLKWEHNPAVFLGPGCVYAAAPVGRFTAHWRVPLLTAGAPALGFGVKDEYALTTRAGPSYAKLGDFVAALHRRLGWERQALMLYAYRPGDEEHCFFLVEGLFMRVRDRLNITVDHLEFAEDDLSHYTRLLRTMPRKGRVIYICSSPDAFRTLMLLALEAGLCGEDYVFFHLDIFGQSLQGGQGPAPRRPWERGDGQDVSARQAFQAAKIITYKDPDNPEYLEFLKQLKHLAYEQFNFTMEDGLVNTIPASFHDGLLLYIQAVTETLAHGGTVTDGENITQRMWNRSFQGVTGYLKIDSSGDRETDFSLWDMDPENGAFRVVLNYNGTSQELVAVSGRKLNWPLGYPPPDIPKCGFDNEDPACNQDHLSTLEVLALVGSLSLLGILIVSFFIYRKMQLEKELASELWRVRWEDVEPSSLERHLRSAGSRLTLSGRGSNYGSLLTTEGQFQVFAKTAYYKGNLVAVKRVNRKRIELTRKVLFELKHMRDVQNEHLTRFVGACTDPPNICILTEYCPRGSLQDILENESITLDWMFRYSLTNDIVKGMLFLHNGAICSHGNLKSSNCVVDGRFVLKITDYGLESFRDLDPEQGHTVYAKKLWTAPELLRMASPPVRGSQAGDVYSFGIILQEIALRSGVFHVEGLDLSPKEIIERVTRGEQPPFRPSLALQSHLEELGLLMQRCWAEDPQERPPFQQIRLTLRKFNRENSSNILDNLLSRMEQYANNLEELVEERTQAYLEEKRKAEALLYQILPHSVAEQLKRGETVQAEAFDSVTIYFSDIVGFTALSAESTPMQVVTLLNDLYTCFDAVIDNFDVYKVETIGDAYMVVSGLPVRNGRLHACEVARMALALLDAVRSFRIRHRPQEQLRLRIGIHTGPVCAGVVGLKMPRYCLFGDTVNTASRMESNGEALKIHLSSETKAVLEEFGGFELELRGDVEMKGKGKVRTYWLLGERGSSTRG", "assay": "Competition binding to hNPR-A (Table I, FIG. 5)"}}, "note": "Where a SMILES comes first, the peptide text is derived from it. Bridges are numbered along the chain shown (N, C = ends).", "data": [{"compound": "CC[C@H](C)[C@@H]1NC(=O)[C@H](CCCNC(=N)N)NC(=O)[C@H](CC(=O)O)NC(=O)[C@H]([C@@H](C)CC)NC(=O)[C@H](CO)NC(=O)CNC(=O)[C@H]([C@@H](C)O)NC(=O)[C@H](Cc2ccccc2)NC(=O)[C@@H](NC(=O)[C@H](CO)NC(=O)[C@H](CO)NC(=O)[C@H](CCCNC(=N)N)NC(=O)[C@H](CCCNC(=N)N)NC(=O)[C@H](CC(C)C)NC(=O)[C@H](CO)NC(=O)[C@H](CCCNC(=N)N)NC(=O)[C@@H]2CCCN2C(=O)[C@H](C)NC(=O)[C@@H](N)[C@@H](C)O)CSSC[C@@H](C(=O)N[C@@H](CC(N)=O)C(=O)N[C@@H](CO)C(=O)N[C@@H](Cc2ccccc2)C(=O)N[C@@H](CCCNC(=N)N)C(=O)N[C@@H](Cc2ccc(O)cc2)C(=O)O)NC(=O)CNC(=O)[C@H](CC(C)C)NC(=O)CNC(=O)[C@H](CO)NC(=O)[C@H](CCC(N)=O)NC(=O)[C@H](C)NC(=O)[C@H](CCCNC(=N)N)NC1=O", "note": "[ANF 76] (H-TAPRSLRRSSCFTGSIDRIRAQSGLGCNSFRY-OH; disulfide 11-27; C-terminus assumed)", "values": [{"measurement": "IC50", "setting": "hNPR-C", "value": 10, "unit": "µM"}, {"measurement": "IC50", "setting": "hNPR-A", "value": 8.9, "unit": "pM"}]}]}
